Test results from patent US20060167109A1, “Methods of reducing rhinovirus contagion and related compositions” (priority 2002, published 2006).

Key:
Assay in all cases: HRV cytopathic effect assay
Assay type in all cases: cell-based
Conditions in all cases: Human rhinovirus sp.
HRV serotype 92 = test system: HRV serotype 92
Experimental: (§1) For sensitivity testing to pleconaril, the appropriate cells were seeded into 96 well plates at a concentration of 4×10^4/well. After an overnight incubation at 37° C., the medium was removed and the cells were infected with 150 μL of a dilution of virus previously titrated to give ≧85% lysis of the monolayer after 3 days of incubation. The plates were incubated for 1 hour at the appropriate temperature and then overlaid with 50 μL of medium containing serial 2-fold dilutions of pleconaril in 2% DMSO. The final DMSO concentration in the assay was always 0.5%. No virus and no pleconaril controls were included on each plate. All drug concentrations were run in quadruplicate. The plates were then incubated for 3 days at the appropriate temperature followed by processing as described above.

HRV serotype 98 = test system: HRV serotype 98
Experimental: as §1

HRV serotype 54 = test system: HRV serotype 54
Experimental: as §1

HRV serotype 12 = test system: HRV serotype 12
Experimental: as §1

HRV serotype 7 = test system: HRV serotype 7
Experimental: as §1

HRV serotype 71 = test system: HRV serotype 71
Experimental: as §1

HRV serotype 65 = test system: HRV serotype 65
Experimental: as §1

HRV serotype 28 = test system: HRV serotype 28
Experimental: as §1

HRV serotype 42 = test system: HRV serotype 42
Experimental: as §1

HRV serotype 39 = test system: HRV serotype 39
Experimental: as §1

HRV serotype 79 = test system: HRV serotype 79
Experimental: as §1

HRV serotype 25 = test system: HRV serotype 25
Experimental: as §1

HRV serotype 8 = test system: HRV serotype 8
Experimental: as §1

HRV serotype 62 = test system: HRV serotype 62
Experimental: as §1

HRV serotype 1A = test system: HRV serotype 1A
Experimental: as §1

HRV serotype 19 = test system: HRV serotype 19
Experimental: as §1

HRV serotype 43 = test system: HRV serotype 43
Experimental: as §1

HRV serotype 72 = test system: HRV serotype 72
Experimental: as §1

HRV serotype 24 = test system: HRV serotype 24
Experimental: as §1

HRV serotype 22 = test system: HRV serotype 22
Experimental: as §1

HRV serotype 87 = test system: HRV serotype 87
Experimental: as §1

HRV serotype 89 = test system: HRV serotype 89
Experimental: as §1

HRV serotype 99 = test system: HRV serotype 99
Experimental: as §1

HRV serotype 51 = test system: HRV serotype 51
Experimental: as §1

HRV serotype 88 = test system: HRV serotype 88
Experimental: as §1

HRV serotype 84 = test system: HRV serotype 84
Experimental: as §1

HRV serotype 21 = test system: HRV serotype 21
Experimental: as §1

HRV serotype 58 = test system: HRV serotype 58
Experimental: as §1

HRV serotype 96 = test system: HRV serotype 96
Experimental: as §1

HRV serotype 91 = test system: HRV serotype 91
Experimental: as §1

HRV serotype 75 = test system: HRV serotype 75
Experimental: as §1

HRV serotype 77 = test system: HRV serotype 77
Experimental: as §1

HRV serotype 9 = test system: HRV serotype 9
Experimental: as §1

HRV serotype 73 = test system: HRV serotype 73
Experimental: as §1

HRV serotype 100 = test system: HRV serotype 100
Experimental: as §1

HRV serotype 35 = test system: HRV serotype 35
Experimental: as §1

HRV serotype 48 = test system: HRV serotype 48
Experimental: as §1

HRV serotype 53 = test system: HRV serotype 53
Experimental: as §1

HRV serotype 44 = test system: HRV serotype 44
Experimental: as §1

HRV serotype 69 = test system: HRV serotype 69
Experimental: as §1

HRV serotype 78 = test system: HRV serotype 78
Experimental: as §1

HRV serotype 29 = test system: HRV serotype 29
Experimental: as §1

HRV serotype 80 = test system: HRV serotype 80
Experimental: as §1

HRV serotype 16 = test system: HRV serotype 16
Experimental: as §1

HRV serotype 27 = test system: HRV serotype 27
Experimental: as §1

Cc1cc(CCCOc2c(C)cc(-c3noc(C(F)(F)F)n3)cc2C)on1 [pleconaril, 3-[3,5-dimethyl-4-[3-(3-methyl-5-isoxazolyl)propoxy]phenyl]-5-(trifluoromethyl)-1,2,4-oxadiazole]
IC50 (HRV serotype 92): 20 ± 10 nM
IC50 (HRV serotype 98): 1800 ± 1620 nM
IC50 (HRV serotype 54): 460 ± 110 nM
IC50 (HRV serotype 12): 390 ± 120 nM
IC50 (HRV serotype 7): 50 ± 10 nM
IC50 (HRV serotype 71): 20 ± 10 nM
IC50 (HRV serotype 65): 330 ± 100 nM
IC50 (HRV serotype 28): 200 ± 70 nM
IC50 (HRV serotype 42): > 12500 nM
IC50 (HRV serotype 39): 10 nM
IC50 (HRV serotype 79): 40 ± 60 nM
IC50 (HRV serotype 25): 100 ± 10 nM
IC50 (HRV serotype 8): 3420 ± 2700 nM
IC50 (HRV serotype 62): 160 ± 60 nM
IC50 (HRV serotype 1A; HRV1A, Table 2, mean of at least two independent determinations): 430 ± 170 nM
IC50 (HRV serotype 1A; serotype 1A): 430 ± 170 nM
IC50 (HRV serotype 19): 200 ± 10 nM
IC50 (HRV serotype 43): 230 ± 110 nM
IC50 (HRV serotype 72): 940 ± 300 nM
IC50 (HRV serotype 24): 210 ± 20 nM
IC50 (HRV serotype 22): 40 ± 20 nM
IC50 (HRV serotype 87): > 12500 nM
IC50 (HRV serotype 89; HRV89, Table 2, mean of at least two independent determinations): 50 ± 10 nM
IC50 (HRV serotype 89; serotype 89): 50 ± 10 nM
IC50 (HRV serotype 99): > 12500 nM
IC50 (HRV serotype 51): 50 ± 30 nM
IC50 (HRV serotype 88): 100 ± 40 nM
IC50 (HRV serotype 84): > 12500 nM
IC50 (HRV serotype 21): 40 ± 10 nM
IC50 (HRV serotype 58): 40 ± 30 nM
IC50 (HRV serotype 96): 90 ± 50 nM
IC50 (HRV serotype 91): 730 ± 390 nM
IC50 (HRV serotype 75): 110 ± 60 nM
IC50 (HRV serotype 77): 550 ± 290 nM
IC50 (HRV serotype 9): 220 ± 80 nM
IC50 (HRV serotype 73): 210 ± 90 nM
IC50 (HRV serotype 100): 30 ± 10 nM
IC50 (HRV serotype 35): 40 ± 10 nM
IC50 (HRV serotype 48): 1800 ± 630 nM
IC50 (HRV serotype 53): 280 ± 60 nM
IC50 (HRV serotype 44): 110 ± 70 nM
IC50 (HRV serotype 69): 6770 ± 3140 nM
IC50 (HRV serotype 78): 80 ± 40 nM
IC50 (HRV serotype 29): 270 ± 70 nM
IC50 (HRV serotype 80): 170 ± 30 nM
IC50 (HRV serotype 16): 570 ± 190 nM
IC50 (HRV serotype 27): 5900 ± 1900 nM
